This note sets out measurements from PMC9309159, “Identification of heptapeptides targeting a lethal bacterial strain in septic mice through an integrative approach” (Signal Transduction and Targeted Therapy, 2022).

Broadly, the Kd is the free concentration of one partner at which half of the binding sites on the other are occupied at equilibrium, for simple one-to-one binding. Lower therefore signals tighter binding.

In one assay the target is DEGQ protein. The experiment in a line: SPRi assay of peptide binding to DEGQ protein. The arrangement: species or system E. coli MSI001. As to conditions: control peptide immobilized on chip, value printed in picture of Fig. 8e. Here is the method: (§1) Protein profiles were determined by cPCoA distance among samples and characterized by close intragroup distances among samples. b Hierarchical clustering analysis of proteins from the HEE, VTK and input groups. […] Label-free mass spectrometry was used to quantitate proteins from the HEE, VTK and input groups. Red represents high expression, while blue represents low expression. c Volcano plot of proteins from the VTK group and HEE group. […] DEGP or DEGQ protein at different concentrations (5 nmol/L, 10 nmol/L, 20 nmol/L) in solution flowed on an SPRi chip. Binding data were collected and analyzed by commercial SPRi analysis software (Plexera SPR Data Analysis Model, Plexera, USA).
(§2) To measure the binding affinity of peptides with targeted proteins, a PlexArray HT A100 (Plexera, USA) Surface Plasmon Resonance imaging (SPRi) system was used to monitor the whole procedure in real time. Briefly, a chip with a well-prepared peptide microarray was assembled with a plastic flow cell for sample loading. The operation details for the PlexArray HT were as described previously.[65] The purified protein samples were prepared at determined concentrations in PBS running buffer, while glycine-HCl buffer (10 mmol/L, pH 2.0) was used for regeneration. Binding data were collected and analyzed by SPR Data Analysis Module software (Plexera, USA). […]

The next assay deals with DEGP protein. The experiment in a line: SPRi assay of peptide binding to DEGP protein. The arrangement: species or system E. coli MSI001. The conditions noted are these: control peptide immobilized on chip, value printed in picture of Fig. 8e. How it is done:
as §1, §2

The next assay deals with bacterial strain MSI001. Put plainly: In vitro antibacterial assay (colony counting). The class given is cell-based, Escherichia coli. As to conditions: 1 × 10^3 CFU, peptide 0.25, 0.5, 1 μmol/L, 37 °C, 1-8 h, colony count, n = 3. Here is the method:
Fig. 6 Antimicrobial activity of the C7C-LL37 fusion peptides in vitro. a Primary structures and physical properties of the C7C and LL37 fusion peptides, including LL37, VTK-LL37, LL37-VTK, KYY-LL37 and LL37-KYY, ISS-LL37, INS-LL37. Net charge, PI and GRAVY values were acquired as described above. b Inhibitory effect of C7C-LL37 fusion peptides on bacterial growth. A C7C-LL37 fusion peptide or LL37 alone was added to the cultured bacterial strain MSI001 (1 × 10^3 CFU) at final concentrations of 0.25 μmol/L, 0.5 μmol/L and 1 μmol/L. Sterile DPBS was used as control. After incubation with the C7C-LL37 or LL37 peptides at 37 °C for different times (1-8 h), bacterial colonies were counted. n = 3. *P < 0.05, VTK-LL37 group compared to LL37 group; ^#P < 0.05, LL37-VTK group compared to LL37 group. c, d Inhibitory effect of VTK-LL37 on biofilm formation. The VTK-LL37 or LL37 peptide was added to the bacterial culture at a final concentration of 0-4 μmol/L and incubated at 37 °C for 3 days. Bacterial culture medium and the peptides were refreshed every day. The biofilm was stained with 1% crystal violet, and the precipitates were dissolved in 95% ethanol, followed by detection of absorbance at 570 nm (A570) (c). Moreover, the biofilm was observed under a microscope (d). n = 5. *P < 0.05, VTK-LL37 group compared to LL37 group […]

Assay [1] addresses T1, DEGQ protein, purified (SPRi analyte) (E. coli (strain MSI001), UniProt P39099 28-455).
T1 sequence (looked up): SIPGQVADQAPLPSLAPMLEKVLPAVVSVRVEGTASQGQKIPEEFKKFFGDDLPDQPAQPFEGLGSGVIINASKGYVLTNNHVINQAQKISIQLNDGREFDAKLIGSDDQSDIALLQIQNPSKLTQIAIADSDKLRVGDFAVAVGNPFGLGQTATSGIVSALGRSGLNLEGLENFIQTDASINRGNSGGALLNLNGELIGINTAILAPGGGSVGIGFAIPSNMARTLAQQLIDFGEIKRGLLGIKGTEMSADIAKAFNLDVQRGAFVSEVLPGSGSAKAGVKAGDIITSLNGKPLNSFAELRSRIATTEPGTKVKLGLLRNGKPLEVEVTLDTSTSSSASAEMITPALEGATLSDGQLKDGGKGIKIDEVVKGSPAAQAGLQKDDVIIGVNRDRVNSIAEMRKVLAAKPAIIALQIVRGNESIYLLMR
The experiment in a line: SPR. As to conditions: both partners purified.

Assay [2] concerns the target T2, DEGP protein, purified (SPRi analyte) (E. coli (strain MSI001), UniProt P0C0V0 27-474).
T2 sequence (looked up): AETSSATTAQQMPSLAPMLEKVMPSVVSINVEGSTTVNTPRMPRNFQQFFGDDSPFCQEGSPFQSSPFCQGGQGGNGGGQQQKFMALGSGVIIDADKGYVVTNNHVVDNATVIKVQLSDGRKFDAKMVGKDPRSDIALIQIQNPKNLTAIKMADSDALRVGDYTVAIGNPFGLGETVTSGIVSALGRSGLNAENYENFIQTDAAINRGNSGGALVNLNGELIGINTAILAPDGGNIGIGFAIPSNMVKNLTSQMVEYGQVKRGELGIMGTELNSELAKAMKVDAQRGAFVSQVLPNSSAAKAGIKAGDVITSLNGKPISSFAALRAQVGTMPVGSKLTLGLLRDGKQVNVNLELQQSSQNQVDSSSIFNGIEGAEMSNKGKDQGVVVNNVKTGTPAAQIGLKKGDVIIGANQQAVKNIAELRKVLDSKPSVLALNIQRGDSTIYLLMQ
The experiment in a line: SPR. As to conditions: both partners purified.

Entries after “also recorded” stand apart in the source; their conditions may differ. Ends that are not written are not given here. * marks the point of attachment. Biotin = O=C1N[C@H]2[C@H](CS[C@H]2CCCCC(=O)*)N1

For “Biotin-CHEEWLPAC (cysteine pairing not given here) [control HEE heptapeptide]”, the Kd on DEGQ protein worked out at 1000 nM; on DEGP protein, 5250 nM.

For “LLGDFFRKSKEKIGKEFKRIVQRIKDFLRNLVPRTESVPGVGCVTKLGSLC [LL37-VTK]”, in the assay on bacterial strain MSI001, the “inhibitory effect on bacterial growth of MSI001” value was “inhibited MSI001 bacterial growth but also showed stronger antibiotic activity than LL37 alone in the early stage (1-3 h); also recorded: stronger bacteriostatic activity than other LL37 fusion peptides”.

B1: VTK heptapeptide VTKLGSL, synthesized (immobilised on the SPRi chip) (peptide)
peptide: VTKLGSL
notes: also called VTK peptide; source: synthetic peptide
As to B1, the equilibrium dissociation constant (Kd) in assay [1] is 1.73 nM; in assay [2], 15.8 nM.
